Read-outs that look alike come from different tables or passages of the source.
How the values were obtained:
[1] = molecular target: T1, rat GPR14 (U-II receptor) (Rattus norvegicus, UniProt P49684); test: Rat UII Calcium Mobilization FLIPR Assay; type: cell-based; settings: average value for the compound tested; read-out: Rat UII FLIPR Average IC50
T1 construct: expressed in transfected cells
T1 sequence (P49684 1-386): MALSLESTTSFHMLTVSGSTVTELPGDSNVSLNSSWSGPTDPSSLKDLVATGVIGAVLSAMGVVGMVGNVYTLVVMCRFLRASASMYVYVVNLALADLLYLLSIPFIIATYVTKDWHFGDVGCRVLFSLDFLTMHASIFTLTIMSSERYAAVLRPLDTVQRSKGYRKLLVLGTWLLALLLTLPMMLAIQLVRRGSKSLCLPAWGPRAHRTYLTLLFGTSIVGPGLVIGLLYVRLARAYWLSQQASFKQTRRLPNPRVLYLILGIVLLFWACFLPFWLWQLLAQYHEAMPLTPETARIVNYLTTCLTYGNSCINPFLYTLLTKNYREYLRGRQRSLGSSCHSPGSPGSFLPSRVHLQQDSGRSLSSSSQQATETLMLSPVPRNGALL
Method in brief: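 Fluorescent calcium signals were recorded at room temperature (23° C) by FLIPR. Stable rat U-II receptor CHO lines had been dye-loaded for 1 h at 37° C in pH 7.4 HBSS containing 20 mM HEPES, 0.1% BSA and 2.5 mM probenecid.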

[2] = molecular target: T2, Human UII receptor, 6D9 human rhabdomyosarcoma cells (Homo sapiens, UniProt Q9UKP6); test: Human UII Calcium Mobilization Assay; type: cell-based; settings: average value, FLIPR TETRA, read-out: Human UII Ca^+ Mobilization Average IC50
T2 construct: 6D9: isolated by dilution subcloning of RMS13 cells, ATCC® Number: CRL-2061; host or cells: 6D9 human rhabdomyosarcoma cells (subclone of RMS13)
T2 sequence (Q9UKP6 1-389): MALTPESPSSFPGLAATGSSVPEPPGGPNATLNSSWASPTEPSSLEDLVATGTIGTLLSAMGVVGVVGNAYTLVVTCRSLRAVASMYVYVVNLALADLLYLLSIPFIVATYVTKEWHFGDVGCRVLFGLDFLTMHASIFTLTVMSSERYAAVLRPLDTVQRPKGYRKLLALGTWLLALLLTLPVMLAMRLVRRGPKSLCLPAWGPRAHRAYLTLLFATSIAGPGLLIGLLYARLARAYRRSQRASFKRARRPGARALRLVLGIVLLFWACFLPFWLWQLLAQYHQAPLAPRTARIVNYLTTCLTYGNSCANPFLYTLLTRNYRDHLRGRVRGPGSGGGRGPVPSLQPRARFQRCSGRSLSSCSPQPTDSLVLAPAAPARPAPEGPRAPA
Method in brief: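 FLIPR calcium responses were recorded for 4 minutes after room-temperature addition of test antagonist and U-II, in dye-loaded human 6D9 cells (37° C, 45 min; HBSS/HEPES with probenecid 1.25 mM). Compounds serially diluted in HBSS/HEPES, up to 0.1% DMSO; curves gave IC50 and EC50.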

[3] = molecular target: T3, endogenous human UII receptor (Homo sapiens, UniProt Q9UKP6); test: Human Radioligand Binding Assay ((^125I)-U-II binding to human skeletal muscle myoblasts)
T3 sequence (Q9UKP6 1-389): T2 sequence (Q9UKP6 1-389)

SMILES	IC50 [1]	IC50 [2]	Ki [3]	Ki ([3]; read-out: Human UII Average Binding Ki, average value, (^125I)-U-II binding to human skeletal muscle myoblasts (HSMM), 25° C., 3 h)
CCN1CCN(c2cccc3c2C(=O)N([C@H](CCCOCC(C)C)c2ccc(OC)c(OC)c2)C3=O)CC1 [Cpd 210, (R)-2-[1-(3,4-dimethoxy-phenyl)-4-isobutoxy-butyl]-4-(4-ethyl-piperazin-1-yl)-isoindole-1,3-dione]	6200 nM	> 10000 nM	> 300 nM	–
COc1ccc([C@@H](CCNC(=O)c2csc(C)n2)N2C(=O)c3cccc(N4CCN([C@H](C)c5ccccc5)CC4)c3C2=O)cc1OC [Cpd 211, (R)-2-methyl-thiazole-4-carboxylic acid (3-(3,4-dimethoxy-phenyl)-3-{1,3-dioxo-4-[4-(1R)-(1-phenyl-ethyl)-piperazin-1-yl]-1,3-dihydro-isoindol-2-yl}-propyl)-amide]	19 nM	1200 nM	89 nM	–
COc1ccc([C@@H](CCCNC(=O)COC(C)(C)C)N2C(=O)c3cccc(N4CCN([C@H](C)c5ccccc5)CC4)c3C2=O)cc1OC [Cpd 213, (R)-2-tert-butoxy-N-(4-(3,4-dimethoxy-phenyl)-4-{1,3-dioxo-4-[4-(1R)-(1-phenyl-ethyl)-piperazin-1-yl]-1,3-dihydro-isoindol-2-yl}-butyl)-acetamide]	17 nM	730 nM	54 nM	–
COc1ccc([C@@H](CCCNC(=O)c2c(C)n[nH]c2C)N2C(=O)c3cccc(N4CCN([C@H](C)c5ccccc5)CC4)c3C2=O)cc1OC [Cpd 215, (R)-3,5-dimethyl-1H-pyrazole-4-carboxylic acid (4-(3,4-dimethoxy-phenyl)-4-{1,3-dioxo-4-[4-(1R)-(1-phenyl-ethyl)-piperazin-1-yl]-1,3-dihydro-isoindol-2-yl}-butyl)-amide]	11 nM	37 nM	–	87 nM
COc1ccc([C@@H](CCNC(=O)c2cnoc2C)N2C(=O)c3cccc(N4CCN([C@H](C)c5ccccc5)CC4)c3C2=O)cc1OC [Cpd 217, (R)-5-methyl-isoxazole-4-carboxylic acid (3-(3,4-dimethoxy-phenyl)-3-{1,3-dioxo-4-[4-(1R)-(1-phenyl-ethyl)-piperazin-1-yl]-1,3-dihydro-isoindol-2-yl}-propyl)-amide]	14 nM	1000 nM	32 nM	–
CCN1CCN(c2cccc3c2C(=O)N([C@H](CCCOCC(=O)O)c2ccc(OC)c(OC)c2)C3=O)CC1 [Cpd 218, (R)-{4-(3,4-dimethoxy-phenyl)-4-[4-(4-ethyl-piperazin-1-yl)-1,3-dioxo-1,3-dihydro-isoindol-2-yl]-butoxy}-acetic acid]	240 nM	2400 nM	> 300 nM	–
COc1ccc([C@@H](CCNC(=O)c2ccncc2)N2C(=O)c3cccc(N4CCN([C@H](C)c5ccccc5)CC4)c3C2=O)cc1OC [Cpd 221, (R)-N-(3-(3,4-dimethoxy-phenyl)-3-{1,3-dioxo-4-[4-(1R)-(1-phenyl-ethyl)-piperazin-1-yl]-1,3-dihydro-isoindol-2-yl}-propyl)-isonicotinamide]	15 nM	910 nM	72 nM	–
COc1cc(Br)c(CN2C(=O)c3cccc(N4CCN([C@H](C)c5ccccc5)CC4)c3C2=O)cc1OC [Cpd 225, 2-(2-bromo-4,5-dimethoxy-benzyl)-4-[4-(1R)-(1-phenyl-ethyl)-piperazin-1-yl]-isoindole-1,3-dione]	1500 nM	> 10000 nM	> 300 nM	–
COc1ccc(CN2C(=O)c3ccc(N4CCN([C@H](C)c5ccccc5)CC4)cc3C2=O)cc1OC [Cpd 226, 2-(3,4-dimethoxy-benzyl)-5-[4-(1R)-(1-phenyl-ethyl)-piperazin-1-yl]-isoindole-1,3-dione]	10000 nM	> 10000 nM	> 300 nM	–

More lines, main results first:

IC50 [1]	IC50 [2]	Ki [3]	SMILES	Ki ([3]; read-out: Human UII Average Binding Ki, average value, (^125I)-U-II binding to human skeletal muscle myoblasts (HSMM), 25° C., 3 h)
19 nM	790 nM	26 nM	COc1ccc([C@@H](CCCNC(=O)C(F)(F)F)N2C(=O)c3cccc(N4CCN([C@H](C)c5ccccc5)CC4)c3C2=O)cc1OC [Cpd 212, (R)-N-(4-(3,4-dimethoxy-phenyl)-4-{1,3-dioxo-4-[4-(1R)-(1-phenyl-ethyl)-piperazin-1-yl]-1,3-dihydro-isoindol-2-yl}-butyl)-2,2,2-trifluoro-acetamide]	–
9500 nM	> 10000 nM	> 300 nM	CCN1CCN(c2cccc3c2C(=O)N([C@H](CCCOCc2cccs2)c2ccc(OC)c(OC)c2)C3=O)CC1 [Cpd 214, (R)-2-[1-(3,4-dimethoxy-phenyl)-4-(thiophen-2-ylmethoxy)-butyl]-4-(4-ethyl-piperazin-1-yl)-isoindole-1,3-dione]	–
22 nM	1000 nM	44 nM	COc1ccc([C@@H](CCNS(=O)(=O)c2cn(C)c(C)n2)N2C(=O)c3cccc(N4CCN([C@H](C)c5ccccc5)CC4)c3C2=O)cc1OC [Cpd 219, (R)-1,2-dimethyl-1H-imidazole-4-sulfonic acid (3-(3,4-dimethoxy-phenyl)-3-{1,3-dioxo-4-[4-(1R)-(1-phenyl-ethyl)-piperazin-1-yl]-1,3-dihydro-isoindol-2-yl}-propyl)-amide]	–
23 nM	170 nM	11 nM	COc1ccc([C@@H](CCNS(=O)(=O)O)N2C(=O)c3cccc(N4CCN([C@H](C)c5ccccc5)CC4)c3C2=O)cc1OC [Cpd 220, (R)-(3-(3,4-dimethoxy-phenyl)-3-{1,3-dioxo-4-[4-(1R)-(1-phenyl-ethyl)-piperazin-1-yl]-1,3-dihydro-isoindol-2-yl}-propyl)-sulfamic acid]	–
25 nM	1500 nM	140 nM	COc1ccc([C@@H](CCNS(=O)(=O)Cc2ccccc2)N2C(=O)c3cccc(N4CCN([C@H](C)c5ccccc5)CC4)c3C2=O)cc1OC [Cpd 222, (R)-N-(3-(3,4-dimethoxy-phenyl)-3-{1,3-dioxo-4-[4-(1R)-(1-phenyl-ethyl)-piperazin-1-yl]-1,3-dihydro-isoindol-2-yl}-propyl)-C-phenyl-methanesulfonamide]	–
12 nM	240 nM	120 nM	COc1ccc([C@@H](CCNS(=O)(=O)c2c(C)n[nH]c2C)N2C(=O)c3cccc(N4CCN([C@H](C)c5ccccc5)CC4)c3C2=O)cc1OC [Cpd 223, (R)-3,5-dimethyl-1H-pyrazole-4-sulfonic acid (3-(3,4-dimethoxy-phenyl)-3-{1,3-dioxo-4-[4-(1R)-(1-phenyl-ethyl)-piperazin-1-yl]-1,3-dihydro-isoindol-2-yl}-propyl)-amide]	–
340 nM	2000 nM	> 300 nM	COc1ccc([C@@H](CCCNS(=O)(=O)c2cccs2)N2C(=O)c3cccc(OCCCN(C)C)c3C2=O)cc1OC [Cpd 224, (R)-thiophene-2-sulfonic acid {4-(3,4-dimethoxy-phenyl)-4-[4-(3-dimethylamino-propoxy)-1,3-dioxo-1,3-dihydro-isoindol-2-yl]-butyl}-amide]	–
160 nM	2900 nM	> 300 nM	CCN1CCN(c2cccc3c2C(=O)N([C@H](CCCOCc2c(F)cccc2F)c2ccc(OC)c(OC)c2)C3=O)CC1 [Cpd 227, (R)-2-[4-(2,6-difluoro-benzyloxy)-1-(3,4-dimethoxy-phenyl)-butyl]-4-(4-ethyl-piperazin-1-yl)-isoindole-1,3-dione]	–
